Laboratory results reported in patent US9888679B2, “Protection of progenitor cells and regulation of their differentiation” (Proteobioactives Pty Ltd, priority 2007, dated 2018).

Columns and labels:
[1] = tested on: Murine MSC line C3H10T1/2; experiment: Proteoglycan biosynthesis (35S-GAG) in 7 day pellet cultures; assay type: cell-based; conditions: 10 micrograms/mL; 7 day pellet culture; FIG. 15
Excerpt: FIG. 15. Bar graphs showing the concentration dependent effects of Pentosan Polysulfate (PPS), on the biosynthesis of Proteoglycans (PGs) as determined by the incorporation of radioactively labelled sulfate into the sulfated glycosaminoglycans (^35S-GAG) of PGs in 7 day pellet cultures of a murine progenitor cells (C3H10T1-2).
Murine Progenitor cells (cell lines C3H10T1/2 or ATDC5) purchased from RIKEN Cell Bank (Tsukuba, Japan) or human immunoselected Stro-1+ Progenitor cells (Mesoblast Ltd, Melbourne, Australia) were seeded in 2 ml screw-capped sterile centrifuge tubes and the total volume made-up to 1 ml with DMEM-High glucose medium containing 10% FBS. Progenitor cells were then centrifuged at 500 g for 10 min in a swing-out rotor at room temperature. The screw caps were loosened and the tubes placed in an incubator at 37° C., in a 5% CO2/95% air moist atmosphere. The pellets generally formed within 24 hours. Medium was changed daily in the first two days, then once every 2-3 days thereafter. […] Biosynthesis of ^35S-GAGs was determined as described for the monolayer cultures and the results expressed as ^35-S-GAGs/μg DNA.

human progenitor cells = experiment: Proteoglycan biosynthesis (35S-GAG) in 2 day monolayer cultures; assay type: cell-based; conditions: monolayers; FIG. 11
Excerpt: FIG. 11. A bar graph of the concentration dependent effects of Pentosan Polysulfate (PPS), on the biosynthesis of Proteoglycans (PGs) as determined by the incorporation of radioactively labelled sulfate into the sulfated glycosaminoglycans (^35S-GAG) of PGs after 2 day monolayer cultures of human progenitor cells. The data was expressed as ^35S-GAG radioactivity as decays per minute (DPM) normalised to DNA content. *=p<0.05; **=p<0.005; ***=p<0.0005.
Murine Progenitor cells (cell lines C3H10T1/2 or ATDC5) purchased from RIKEN Cell Bank (Tsukuba, Japan) or human immunoselected Stro-1+ Progenitor cells (Mesoblast Ltd, Melbourne, Australia) were seeded into 50 mL plastic culture flasks containing 1:1 high glucose DMEM/Ham's F-12 medium (Invitrogen) supplemented with 10% FBS (Sigma) and incubated at 37° C., in 5% CO2. After confluence was reached, progenitor cells were released by trypsinization and harvested by centrifugation. Cells were inoculated to 96-well or 24-well plates at a density of 3×10^4 cells or 2×10^5 cells per well. […] The experiments were generally terminated after 48 hours incubation when proteoglycan biosynthesis was determined by measuring the incorporation of ^35SO4 into the glycosaminoglycans (^35S-GAGs) as described below.
The data was expressed as ^35S-GAG radioactivity as decays per minute (DPM) normalised to DNA content. *=p<0.05; **=p<0.005; ***=p<0.0005.

## pentosan polysulfate [PPS]
[1]
  increase of proteoglycan synthesis, of the control values: more than 80%
Human progenitor cells
  chondrogenic effect (proteoglycan synthesis): chondrogenic promoting effect
